Results on one compound are retold here after article PMC5041077, “Metabolic profile and safety of piperlongumine” (Scientific Reports, 2016).

Series [1] in a line: Piperlongumine stability assay (microsomal medium). It counts as physicochemical. How it is done:
Method validation protocol and results. The quantification method of PPL was validated by following the European Medicines Agency (EMA) guidelines. Analytical curves were obtained by spiking 200 µL aliquots of HLM with PPL 0.38; 0.95; 9.45; 141.80; 236.34 and 283.61 µM. The linearity was carried out and assessed in triplicate. The linearity was determined using the correlation coefficient (r), the F test for lack-of-fit and a p value of 0.05. The MINITAB Release version 14.1 software (State College, PA, USA) was used to conduct the statistical analysis (Table S1). Carbamazepine (2120 µM) was used as internal standard, and the ratio of the peak area of the PPL and carbamazepine was defined as the analytical response. The lower limit of quantification (LLQ) was obtained by spiking the incubation mixture samples at a concentration of 0.38 µM. The selectivity of the method was assured by analyzing the standard solutions of reagents and the blank HLM (Fig. S1). The absolute recovery (%) was performed at three different concentrations: 0.95, 141.8, 212.7 µM. The recovery was expressed as the percentage of the extracted amount, by comparing the areas from the samples subjected to the extraction procedure with the areas from the analysis of standard solutions of the same concentration that were not submitted to the extraction process. To assess the within-day precision and accuracy, replicate analyzes (n = 5) of 200 µL of microsomal medium spiked at concentrations 0.38, 0.95; 141.8 and 236.3 µM was analyzed in a single day. For between-day assays, samples at the same concentration described above were analyzed for three consecutive days (n = 5) (Table S2). These samples were quantified using a new calibration curve prepared daily. The stability assays were performed to evaluate the PPL stability at three different conditions: (i) at room temperature (25 °C ± 2 °C, for 4 h), (ii) at incubation conditions (37 °C, for 60 min) and (iv) in the autosampler equipment (25 °C ± 2 °C, for 24 h). These assays aimed to evaluate the stability of PPL during sample preparation, during the metabolism reaction and during the analysis, respectively. […] The peak area obtained from the stability assays was quantified using a fresh analytical curve prepared daily. The samples were considered stable when the relative error (RE, %) from the nominal concentration was within ±15% and when the relative standard deviation (RSD%) was below 15% (Table S3).

The target in the next series is CYP2D6 (Homo sapiens, UniProt P10635). Put plainly: biochemical.
Sequence of CYP2D6 (P10635 whole entry): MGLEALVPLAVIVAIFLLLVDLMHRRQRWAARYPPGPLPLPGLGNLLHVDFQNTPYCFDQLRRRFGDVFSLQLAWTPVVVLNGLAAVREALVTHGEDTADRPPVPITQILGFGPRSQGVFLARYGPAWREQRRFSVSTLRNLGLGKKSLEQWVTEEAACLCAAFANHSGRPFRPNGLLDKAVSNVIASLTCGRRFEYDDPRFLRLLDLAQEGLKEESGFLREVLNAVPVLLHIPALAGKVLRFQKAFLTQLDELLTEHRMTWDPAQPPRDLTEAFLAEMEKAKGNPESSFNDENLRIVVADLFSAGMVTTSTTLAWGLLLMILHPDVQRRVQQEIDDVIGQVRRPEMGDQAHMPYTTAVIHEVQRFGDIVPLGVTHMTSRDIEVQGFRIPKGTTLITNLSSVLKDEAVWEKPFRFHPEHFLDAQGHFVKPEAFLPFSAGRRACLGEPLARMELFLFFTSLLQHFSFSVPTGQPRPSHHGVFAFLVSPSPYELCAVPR
Series [2] in a line: Predicted in vivo parameters (in vitro-in vivo scaling). It counts as in vitro ADME, human. How it is done:
In vitro-in vivo scaling has been proposed by some authors. […] PPL microsome and plasma bindings were 23% and 93%, respectively. The predicted parameters, Intrinsic Clearance (CLint), Unbounded Intrinsic Clearance (CLuint), Predicted in vivo Clearance (CL), Hepatic Clearance (CLH) and Hepatic Extraction Ratio (E), are expressed in Table 1.
(§1) The kinetic parameters were calculated from nonlinear regression using GraphPad Prism Version 3.03 (San Diego, CA, USA). The Intrinsic Clearance (CLint) was obtained considering the Hill coefficient. The Unbounded Intrinsic Clearance (CLuint), Predicted in vivo Clearance (CL) and Hepatic Clearance (CLH) were determined according to Subramarian and Tracy[15] and Austin et al.[17]. Hepatic extraction ratio was calculated according to Kashuba et al.[21]. Dose-dependent inhibition parameters were determined employing SigmaPlot version 12.0 (Chicago, IL, USA). The Lineweaver-Burk plot was used to determine the inhibition profile. The second plot of slopes from Lineweaver-Burk plot versus PPL concentrations was utilized to calculate the Ki. The parameters kinact and KI in time-dependent inhibition were calculated employing GraphPad Prism Version 3.03.

For series [3], the target named is T1, CYP1A2 (Homo sapiens, UniProt P05177). Put plainly: Mechanism-based (time-dependent) inhibition of CYP1A2 by piperlongumine. Set-up: kinact: dose or concentration left out as unconfirmed. The following applies: human liver microsomes, pH 7.4, probe phenacetin […] µM. It counts as in vitro ADME. How it is done: Reactions were terminated as described above.
T1 sequence (P05177 whole entry): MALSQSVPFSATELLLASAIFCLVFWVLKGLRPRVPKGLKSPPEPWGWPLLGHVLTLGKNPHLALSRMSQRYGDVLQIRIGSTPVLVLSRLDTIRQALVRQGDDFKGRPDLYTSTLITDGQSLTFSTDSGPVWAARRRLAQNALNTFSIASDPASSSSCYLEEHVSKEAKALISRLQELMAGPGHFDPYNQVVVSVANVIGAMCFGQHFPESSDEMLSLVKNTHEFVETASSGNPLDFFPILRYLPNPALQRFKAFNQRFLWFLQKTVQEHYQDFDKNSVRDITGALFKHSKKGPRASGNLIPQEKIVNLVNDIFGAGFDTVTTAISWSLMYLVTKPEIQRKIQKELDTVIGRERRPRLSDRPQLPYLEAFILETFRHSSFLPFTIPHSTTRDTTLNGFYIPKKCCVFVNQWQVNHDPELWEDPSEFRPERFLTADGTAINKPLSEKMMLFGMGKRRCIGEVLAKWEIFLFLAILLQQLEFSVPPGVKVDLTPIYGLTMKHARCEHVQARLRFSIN
as §1
For orientation: Liver microsomes are vesicles of endoplasmic reticulum, rich in cytochrome P450 enzymes.

Series [4] deals with T1, CYP1A2. Description: Inhibition of CYP1A2 by piperlongumine (dose-dependent, Ki). Type of series: in vitro ADME. The protocol:
In the assay of PPL inhibition in reversible manner, human liver microsomes (0.3 mg/mL final concentration) were the last reagent added into the incubation system to initiate the reaction; after 30 min the reaction was terminated by adding 2 mL of ethyl acetate. Caffeine (64 μM) was added as internal standard and samples were shaken for 10 min at 1500 rpm and centrifuged for 5 min at 2860x g. The organic layers (1.8 mL) were evaporated to dryness under a stream of compressed air at room temperature. The residues were dissolved in 80 μL of the mobile phase and injected in HPLC.
as §1, with “The second plot of slopes from Lineweaver-Burk plot versus PPL concentrations was utilized to calculate the Ki.” left out

A short description of series [5]: Piperlongumine microsomal protein binding (ultrafiltration). It counts as in vitro ADME. The following applies: human, pooled human liver microsomes; PPL 127.70 μM; read-out: fumic (free fraction of the compound in the microsomal incubation). How it is done: Piperlongumine-protein binding. An in vitro study with a microsomal and plasma protein was carried out using a concentration of PPL approximately corresponding to its S50 (n = 3). The plasma protein binding was evaluated to predict the in vivo clearance, using a plasma protein concentration of 42 mg/mL. The samples were incubated with pooled human liver microsomes at 37 °C as described in section above. The same V0 conditions obtained (protein concentration and incubation time) were applied in this study, but in the absence of the cofactor NADPH. Furthermore, a control sample without protein was analyzed simultaneously for comparison purposes. These mixtures were added to the centrifugal filter device (Microcon YM-30, 30,000 molecular weight cut-off; Millipore Corporation, Bedford, MA, USA) and centrifuged at 21800 x g for 30 min at 37 °C (Hitachi CF16RXII, Himac, Tokyo, Japan). The ultra-filtrate was directly assayed by high-performance liquid chromatography at the conditions previously described.

Series [6] addresses T1, CYP1A2. Description: IC50 assay, phenacetin O-deethylation in HLM.
Series [7] deals with T1, CYP1A2. Put plainly: NADPH-dependent inhibition study. Type of series: in vitro ADME. The following applies: PPL at 1/2 IC50, pre-incubation 0 and 30 min. How it is done:
NADPH-dependent Inhibition. The mechanism-based inhibition is characterized by dose-, NADPH- and time-dependent cytochrome P450 oxidoreductase, so the NADPH dependence study was performed. […] NADPH regeneration system was added and the mixture was pre-incubated for 0 and 30 min. […] The mixture was incubated by 30 min and the reaction stopped as described previously. Controls without PPL were performed.

In a further series the target is CYP3A4 (Homo sapiens, UniProt P08684). Put plainly: biochemical.
Sequence of CYP3A4 (P08684 whole entry): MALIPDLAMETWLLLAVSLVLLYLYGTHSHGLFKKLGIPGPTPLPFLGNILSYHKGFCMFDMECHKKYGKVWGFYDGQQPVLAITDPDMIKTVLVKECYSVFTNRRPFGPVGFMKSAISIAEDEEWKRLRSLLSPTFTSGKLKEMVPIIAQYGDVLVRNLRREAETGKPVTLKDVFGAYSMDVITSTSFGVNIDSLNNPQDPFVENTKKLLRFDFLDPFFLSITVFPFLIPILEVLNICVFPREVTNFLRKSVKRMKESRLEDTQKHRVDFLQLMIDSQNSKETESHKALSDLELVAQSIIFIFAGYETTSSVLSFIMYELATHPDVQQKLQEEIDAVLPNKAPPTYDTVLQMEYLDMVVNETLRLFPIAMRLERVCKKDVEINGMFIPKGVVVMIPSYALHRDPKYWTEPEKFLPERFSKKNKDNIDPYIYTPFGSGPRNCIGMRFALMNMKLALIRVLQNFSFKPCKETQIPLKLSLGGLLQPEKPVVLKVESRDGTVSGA

Structures are written as SMILES. Some results are limits rather than exact numbers.

Broadly, the IC50 is the concentration that inhibits the measured activity by half. As a reminder, the kinact is the rate constant of inactivation at saturating inhibitor. The Ki is a dissociation constant, usually derived from enzyme kinetics or from competition with a known ligand. Take `COc1cc(/C=C/C(=O)N2CCC=CC2=O)cc(OC)c1OC` [PPL, Piperlongumine]: the “stability, RE (%) from nominal concentration” value was 0.6% in series [1] (37°C (1h), PPL 0.95 µM); 0.0% in [1] (37°C (1h), PPL 212.7 µM); -4.0% in [1] (Auto injector (24 hs), PPL 0.95 µM); 0.0% in [1] (Auto injector (24 hs), PPL 212.7 µM); 0.6% in [1] (Room temperature (4 hs), PPL 0.95 µM); 6.0% in series [1] (Room temperature (4 hs), PPL 212.7 µM). Further, the concentration for half-maximal inhibition (IC50) was more than 100 µM on CYP2D6, 7.2 µM at CYP1A2 [6] and more than 100 µM against CYP3A4. Besides, the “Hepatic Extraction (E)” value in series [2] is 0.09. For the same compound, the “Predicted in Vivo Clearance (CL)” value in [2] (40 mg microsomes/g liver, 20 g liver/kg body weight) was 19.79 mL/min/kg. The “Unbounded Intrinsic Clearance (CLuint)” value in [2] (corrected for fumic) is 29.84 µL/min/mg. The “Intrinsic Clearance (CLint)” value in series [2] (from HLM kinetic data considering the Hill coefficient) was 22.68 µL/min/mg. Further, the “Hepatic Clearance (CLH)” value in series [2] (liver blood flow 20 mL/min/kg) was 1.89 mL/min/kg. Also, the kinact on CYP1A2 [3] was 0.000233 s⁻¹. In addition, the KI (inactivation) at CYP1A2 [3] (read-out: KI (inactivation parameter)) is 8 µM. For the same compound, the affinity on CYP1A2 [4], expressed as Ki, was 1.5 µM. At CYP1A2 [4] (Lineweaver-Burk plot), the mode of inhibition result is “competitive type”. The fraction unbound at 127.7 μM in series [5] turned out to be 0.76. Besides, the “NADPH dependence of CYP oxidative inhibition” value at CYP1A2 [7] is “NADPH-dependent”.
